Results reported in patent publication EP0377127B1, “Use of Myricetin-3-O-beta-D glucuronide as medicament” (Plantamed Arzneimittel GmbH, priority 1989, dated 1990).
Read-outs that look alike come from different tables or passages of the source.

How the values were obtained:
PG-Biosynthese = experiment: Prostaglandin biosynthesis in the perfused rabbit ear (labelled arachidonic acid, metabolites separated by TLC; RIA); type: cell-based, Kaninchen; conditions: for inhibition at 1 µg/mL: Oryctolagus cuniculus, read-out: hemmen die Biosynthese von PGI₂ und PGE₂
Description: Methode: Perfundiertes Kaninchenohr mit C-Arachidonsäure, Vormarkierung und Messung der radioaktiven Metalboliten mittels Auftrennung durch DC. • 2.

Magenschleimhaut = experiment: Preliminary examination of gastric mucosa damage after peroral dosing; type: in vivo; conditions: 1 mg/kg, preliminary examinations
Description: Es ist gesicherte Erkenntnis, daß Cyclooxygenase-Hemmer, also Hemmer der Biosynthese von Prostaglandinen, wie etwa Indo, die Magenschleimhaut schädigen können. […] Im Ergebnis liefern diese Untersuchungen einen Hinweis auf die wesentlich günstiger zu beurteilende Frage der Toxizität von HIMAK.

[1] = test system: Carrageenin-induzierte Rattenpfotenödem; experiment: Carrageenin-induced rat paw oedema (acute inflammation model); type: in vivo, Ratte
Method: Zur Prüfung der entzündungshemmenden Wirkung dieser Substanz wird das Modell des Carrageenin-induzierten Rattenpfotenödems herangezogen, ein allgemein anerkanntes Modell zur Ermittlung anhand einer akuten Entzündung. Die entzündungshemmende Wirkung von vakuumgetrockneten und lyophilisierten Extrakten ist in Abb. 1 wiedergegeben. Bei der Anwendung von vakuumgetrocknetem Blattextrakt von Epilobium angustifolium wurde eine Dosis von 72 mg/kg Ratte, für sprühgetrockneten Blattextrakt eine Dosis von 136,47 mg/kg Ratte und für lyophilisierten Blattextrakt eine Dosis von 16,4 mg/kg Ratte eingesetzt. Das Ausmaß der entzündungswirkenden von vakuumgetrockneten und lyophilisierten Extrakten der in Abbildung 1 aufgezeigten Konzentrationen entspricht ca. 1 bis 2 mg Indometacin/kg Ratte.
Der Einfluß auf das Carrageenin-induzierte Rattenpfotenödem geht aus den Kurven in den Abbildungen 2 und 3 hervor. Abbildung 2 stellt unterschiedliche Dosen von HIMAK einander gegenüber, Abb. 3 dient dem Vergleich von HIMAK einer bestimmten Dosis mit einem wässrigen Auszug von Epilobium und Indometacin. Der Darstellung des Einflusses der erfindungsgemäßen Substanz auf die Prostaglandin-Biosynthese am pharmakologischen Modell nach ISAKSON, modifiziert nach JUAN und SAMETZ am perfundierten Kaninchenohr sowie mittels Radioimmunoassay (RIA) dienen die Abbildungen 4 und 5.

Row | SMILES | inhibition at 1 µg/mL (PG-Biosynthese; 1 »g/ml (Endkonzentration) Indo, ca. 1 »g/ml HIMAK, perfused rabbit ear) [%] | Hemmung der Biosynthese von Prostaglandinen (in words) (PG-Biosynthese; dose-dependent) | Hemmung der PG-Biosynthese im Vergleich mit Indo (in words) (PG-Biosynthese; weight basis, similar concentration as Indo (Abb. 4)) | Bildung kleiner Erosionen in der Magenschleimhaut (Magenschleimhaut) | Dosisbereich, der das Carrageenin-Pfotenödem ähnlich stark reduziert wie 1 mg/kg Indomethacin (p.o.) ([1]; compared with 1 mg/kg Indomethacin p.o.) | Hemmung der experimentellen akuten Entzündung (Rattenpfotenödem mit Carrageenin) (in words) ([1]; dose-dependent) | Wirksamkeit im Vergleich mit der Referenzsubstanz Indo auf Gewichtsbasis (in words) ([1]; first experiments, weight basis) | so wirksam wie Indo, auf geschätzter Molekulargewichtsbasis ([1]; potency relative to Indo, estimated molecular weight basis) [mal] | so wirksam wie Indo, auf Gewichtsbasis ([1]; potency relative to Indo, weight basis) [mal] | inhibition at 1 µg/mL (PG-Biosynthese) [%]
1 | O=C(O)[C@H]1O[C@@H](Oc2c(-c3cc(O)c(O)c(O)c3)oc3cc(O)cc(O)c3c2=O)[C@H](O)[C@@H](O)[C@@H]1O [HIMAK, Myricetin-3-0-β-D-glucuronid] | > 80 | deutlich hemmen | in etwa gleichem Ausmaß gehemmt | nicht der Fall | 40 - 200 »g/kg KG | deutlich hemmen | wesentlich wirksamer | ~5 | ≥ 10 | –
2 | COc1ccc2c(c1)c(CC(=O)O)c(C)n2C(=O)c1ccc(Cl)cc1 [Indo, Indometacin, reference compound] | – | – | – | Bildung kleiner Erosionen in der Magenschleimhaut | – | – | – | – | – | > 80
